Data: patent US20130165368A1, “ANTIMICROBIAL COMPOUNDS” (priority 2010, published 2013)
In brackets after ≈: the same amount, converted by molar mass.

What follows are compounds tested on Gram negative bacteria, Gram positive bacteria and pathogenic yeasts (assay: MIC agar dilution, summary statements over the micro-organisms tested (Tables I, IX)). Details: over the micro-organisms tested or some of them.
Type: cell-based
Excerpt: For a better understanding, the present invention will now be more particularly described, by way of non-limiting example only, as follows. The micro-organisms shown in Table I overleaf were acquired from the National Collection of Type Cultures (NCTC), Colindale, United Kingdom; the American Type Culture Collection (ATCC), Manassas, United States and the National Collection of Pathogenic Fungi (NCPF), Colindale, United Kingdom. They include Gram negative bacteria, Gram positive bacteria and pathogenic yeasts.
(§1) Throughout the period of testing the microbial strains were subcultured and incubated for 18-20 hours at 37° C. on a weekly basis. Horse blood agar plates were used to sustain the micro-organisms both prior to and throughout testing. The alkoxylated alkanols listed in Table II below were obtained (these are obtainable from Sigma-Aldrich Company Ltd, Dorset, England), each having a GC purity of at least 97%.
(§2) Molar equivalent concentrations were used to allow comparison between compounds of differing molecular mass. Due to weighing difficulties, any compound in solid form was melted in a water bath prior to dilution. To make ten-times strength concentrations, which takes into account agar dilution, 0.0352 mmol of each compound was weighed into plastic universal bottles and 4 mL of sterile distilled water (SDW) was added. To produce a homogenous emulsion the universals were vortexed; once achieved the emulsions were serial diluted by adding 2 mL to 2 mL of SDW.
(§3) Myristyl alcohol and lauryl alcohol were re-weighed and dissolved in 25 μL of the polar solvent 1-methyl-2-pyrrolidone (M6762; Sigma-Aldrich) in sterile glass universals due to an inability to achieve an even suspension. To maintain an even emulsion in the presence of SDW 37.5 μL of the non-ionic detergent Tween 20 (P1379, Sigma-Aldrich) was also added. 3.9375 mL of SDW was added to these, to create a 4 mL volume; they were vortexed and diluted as before.
(§4) For every 100 mL of Isosensitest agar (IST) (CM0471; Oxoid, Basingstoke, England), 3.1 g of the IST powder was added to 100 mL SDW (as per manufacturer's instructions) and sterilised for 15 minutes at 121° C. Once sterilised, the molten agar was cooled to 50° C. in a water-bath. Subsequently 4.8 g of CCEY powder (BC2160; Bioconnections, Wetherby, England), also known as Brazier's medium, was added to 100 mL SDW for every 100 mL of agar needed. This was then sterilised for 15 minutes at 121° C. Once sterilised the molten agar was cooled to 50° C. in a water-bath and 4 mL of egg-yolk emulsion (S2073; TCS Biosciences Ltd, Buckingham, United Kingdom) and 1 mL of lysed defibrinated horse blood (HB035; TCS Biosciences Ltd, Buckingham, United Kingdom) were also added for every 100 mL needed. Horse blood lysis is achieved by dilution to half concentration with SDW; when fully lysed the mixture will turn dark red in colour.
(§5) 18 mL agar was added to each universal and then poured into sterile Petri dishes. This step creates a 1/10 dilution resulting in agar plates of the required strength. Control plates for each set of strains were created by adding 18 mL of agar to 2 mL of SDW.
(§6) Suspensions of each bacterial species were prepared with a density equal to that of a 0.5 McFarland standard using a densitometer. All suspensions were made using sterile distilled water and fresh 18-20 hour cultures. As a 0.5 McFarland standard contains 1.5×10^8 CFU/mL and the multipoint inoculators applies 1 μL spots of liquid, each bacterial suspension was diluted 1/15 (20 μL suspension to 280 μL sterile distilled water).
Bacterial suspensions were prepared from fresh 18-24 hour cultures as previously described. 1 μL of each strain was inoculated onto all 100 agar plates containing a different chemical concentration and the 2 control plates. This was done using a multipoint inoculator which inoculates 20 strains per plate. All plates were incubated for 22 hours at 37° C. in aerobic conditions. […]

| Compound | MIC |
| --- | --- |
| CCCCCCCCCCCCCOCCOCCOCCOCCOCCOCCO [C13E6, polyoxyethylene (6) tridecyl alcohol] | less than 0.88 mmol/L |

Same assay, conditions: read-out: MIC

| Compound | MIC |
| --- | --- |
| CCCCCCCCCCCCOCCOCCOCCOCCOCCOCCO [L6, Hexaethylene Glycol Monododecyl Ether] | ~110 µM (≈ 49.6 µg/mL) |
| CCCCCCCCCCCCOCCOCCOCCO [L3, Triethylene Glycol Monododecyl Ether] | ~110 µM (≈ 35 µg/mL) |
| CCCCCCCCCCCCOCCOCCOCCOCCOCCO [L5, Pentaethylene Glycol Monododecyl Ether] | ~110 µM (≈ 44.7 µg/mL) |
| CCCCCCCCCCCCOCCO [L1, Ethylene Glycol Monododecyl Ether] | ≤ 440 µM |

Each compound was assayed on MRSA EMRSA 16 00998/95 (assay: MIC agar dilution, MRSA strain 47). Details: Staphylococcus aureus, 22 hrs.
Type: cell-based
Experimental: as §2, §4, §5, §6
(§7) Bacterial suspensions were prepared from fresh 18-24 hour cultures as previously described. 1 μL of each strain was inoculated onto all 100 agar plates containing a different chemical concentration and the 2 control plates. This was done using a multipoint inoculator which inoculates 20 strains per plate. All plates were incubated for 22 hours at 37° C. in aerobic conditions.
(§8) Each plate was examined for bacterial growth after 22 and 48 hours, with each being incubated in between examinations. A positive result was recorded as growth of ≧10 colonies. A negative result was recorded as growth of <10 colonies as this is equivalent to 99.9% inhibition. The lowest concentration of chemical that inhibited growth was recorded as the MIC. The results are recorded in Table IV below, where the numbers are quoted in mmol/L.
(§9) Given the positive performance of the ethoxylates of lauryl alcohol in reducing the MIC for a number of the micro-organisms tested, further MIC testing of Laureth-1 [C12E1] through to Laureth-8 [C12E8] was conducted on each of the following: • 10 strains of vancomycin-resistant enterococci (VRE)—listed in Table V below; and • 20 strains of methicillin-resistant Staphylococcus aureus (MRSA)—listed in Table VI.
(§10) The alkanol, alkanol derivatives, agar plates, and inocula were all prepared in the same way as described above.
(§11) The plates were examined in the same manner as described above and the results are recorded in Table VII below, where the numbers are quoted in mmol/L.

| Compound | MIC |
| --- | --- |
| CCCCCCCCCCCCOCCOCCOCCOCCOCCOCCO [L6, Hexaethylene Glycol Monododecyl Ether] | 220 µM (≈ 99.1 µg/mL) |
| CCCCCCCCCCCCOCCOCCOCCO [L3, Triethylene Glycol Monododecyl Ether] | 55 µM (≈ 17.5 µg/mL) |
| CCCCCCCCCCCCOCCOCCOCCOCCOCCO [L5, Pentaethylene Glycol Monododecyl Ether] | 110 µM (≈ 44.7 µg/mL) |
| CCCCCCCCCCCCOCCO [L1, Ethylene Glycol Monododecyl Ether] | 220 µM (≈ 50.7 µg/mL) |

Same assay, conditions: Staphylococcus aureus, 48 hrs

| Compound | MIC |
| --- | --- |
| CCCCCCCCCCCCOCCOCCOCCOCCOCCOCCO [L6, Hexaethylene Glycol Monododecyl Ether] | 440 µM (≈ 198 µg/mL) |
| CCCCCCCCCCCCOCCOCCOCCO [L3, Triethylene Glycol Monododecyl Ether] | 55 µM (≈ 17.5 µg/mL) |
| CCCCCCCCCCCCOCCOCCOCCOCCOCCO [L5, Pentaethylene Glycol Monododecyl Ether] | 110 µM (≈ 44.7 µg/mL) |
| CCCCCCCCCCCCOCCO [L1, Ethylene Glycol Monododecyl Ether] | 220 µM (≈ 50.7 µg/mL) |

Each compound was assayed on Enterobacter cloacae (assay: MIC agar dilution, micro-organism 4 (11936)). Details: Enterobacter cloacae 11936; 22 hrs.
Type: cell-based
Experimental: as §1, §2, §3, §4, §5, §6, §7, §8
(§12) Further experiments have also been conducted to determine the MIC of a number of other compositions as follows. […]

| Compound | MIC |
| --- | --- |
| CCCCCCCCCCCCCOCCOCCOCCOCCOCCOCCO [C13E6, polyoxyethylene (6) tridecyl alcohol] | >880 µM |

Same assay, conditions: Enterobacter cloacae 11936; 48 hrs

| Compound | MIC |
| --- | --- |
| CCCCCCCCCCCCCOCCOCCOCCOCCOCCOCCO [C13E6, polyoxyethylene (6) tridecyl alcohol] | >880 µM |

What follows are compounds tested on Burkholderia cepacia (assay: MIC agar dilution, micro-organism 9 (1222)). Details: Burkholderia cepacia 1222; 22 hrs.
Type: cell-based
Experimental: as §1, §2, §3, §4, §5, §6, §7, §8, §12

| Compound | MIC |
| --- | --- |
| CCCCCCCCCCCCCOCCOCCOCCOCCOCCOCCO [C13E6, polyoxyethylene (6) tridecyl alcohol] | >880 µM |

Same assay, conditions: Burkholderia cepacia 1222; 48 hrs

| Compound | MIC |
| --- | --- |
| CCCCCCCCCCCCCOCCOCCOCCOCCOCCOCCO [C13E6, polyoxyethylene (6) tridecyl alcohol] | >880 µM |

Each compound was assayed on vancomycin-resistant enterococci (VRE) (assay: MIC agar dilution, summary over 10 VRE strains). Details: Enterococcus; most, if not all, of the VRE samples.
Type: cell-based
Experimental: as §9, §10, §11

| Compound | MIC |
| --- | --- |
| CCCCCCCCCCCCOCCOCCOCCO [L3, Triethylene Glycol Monododecyl Ether] | ≤ 440 µM |
| CCCCCCCCCCCCOCCOCCOCCOCCOCCO [L5, Pentaethylene Glycol Monododecyl Ether] | ≤ 440 µM |
| CCCCCCCCCCCCOCCO [L1, Ethylene Glycol Monododecyl Ether] | ≤ 440 µM |

Each compound was assayed on MRSA EMRSA 15 1758/98 (assay: MIC agar dilution, MRSA strain 43). Details: Staphylococcus aureus, 22 hrs.
Type: cell-based
Experimental: as §2, §4, §5, §6, §7, §8, §9, §10, §11

| Compound | MIC |
| --- | --- |
| CCCCCCCCCCCCOCCOCCOCCOCCOCCOCCO [L6, Hexaethylene Glycol Monododecyl Ether] | 110 µM (≈ 49.6 µg/mL) |
| CCCCCCCCCCCCOCCOCCOCCO [L3, Triethylene Glycol Monododecyl Ether] | 55 µM (≈ 17.5 µg/mL) |
| CCCCCCCCCCCCOCCOCCOCCOCCOCCO [L5, Pentaethylene Glycol Monododecyl Ether] | 110 µM (≈ 44.7 µg/mL) |
| CCCCCCCCCCCCOCCO [L1, Ethylene Glycol Monododecyl Ether] | 220 µM (≈ 50.7 µg/mL) |

Same assay, conditions: Staphylococcus aureus, 48 hrs

| Compound | MIC |
| --- | --- |
| CCCCCCCCCCCCOCCOCCOCCOCCOCCOCCO [L6, Hexaethylene Glycol Monododecyl Ether] | 110 µM (≈ 49.6 µg/mL) |
| CCCCCCCCCCCCOCCOCCOCCO [L3, Triethylene Glycol Monododecyl Ether] | 110 µM (≈ 35 µg/mL) |
| CCCCCCCCCCCCOCCOCCOCCOCCOCCO [L5, Pentaethylene Glycol Monododecyl Ether] | 110 µM (≈ 44.7 µg/mL) |
| CCCCCCCCCCCCOCCO [L1, Ethylene Glycol Monododecyl Ether] | 220 µM (≈ 50.7 µg/mL) |

What follows are compounds tested on Serratia marcescens (assay: MIC agar dilution, micro-organism 5 (10211)). Details: Serratia marcescens 10211; 22 hrs.
Type: cell-based
Experimental: as §1, §2, §3, §4, §5, §6, §7, §8, §12

| Compound | MIC |
| --- | --- |
| CCCCCCCCCCCCCOCCOCCOCCOCCOCCOCCO [C13E6, polyoxyethylene (6) tridecyl alcohol] | >880 µM |

Same assay, conditions: Serratia marcescens 10211; 48 hrs

| Compound | MIC |
| --- | --- |
| CCCCCCCCCCCCCOCCOCCOCCOCCOCCOCCO [C13E6, polyoxyethylene (6) tridecyl alcohol] | >880 µM |

Each compound was assayed on MRSA EMRSA 16 18200/95 (assay: MIC agar dilution, MRSA strain 48). Details: Staphylococcus aureus, 22 hrs.
Type: cell-based
Experimental: as §2, §4, §5, §6, §7, §8, §9, §10, §11

| Compound | MIC |
| --- | --- |
| CCCCCCCCCCCCOCCOCCOCCOCCOCCOCCO [L6, Hexaethylene Glycol Monododecyl Ether] | 110 µM (≈ 49.6 µg/mL) |
| CCCCCCCCCCCCOCCOCCOCCO [L3, Triethylene Glycol Monododecyl Ether] | 110 µM (≈ 35 µg/mL) |
| CCCCCCCCCCCCOCCOCCOCCOCCOCCO [L5, Pentaethylene Glycol Monododecyl Ether] | 110 µM (≈ 44.7 µg/mL) |
| CCCCCCCCCCCCOCCO [L1, Ethylene Glycol Monododecyl Ether] | 220 µM (≈ 50.7 µg/mL) |

Same assay, conditions: Staphylococcus aureus, 48 hrs

| Compound | MIC |
| --- | --- |
| CCCCCCCCCCCCOCCOCCOCCOCCOCCOCCO [L6, Hexaethylene Glycol Monododecyl Ether] | 220 µM (≈ 99.1 µg/mL) |
| CCCCCCCCCCCCOCCOCCOCCO [L3, Triethylene Glycol Monododecyl Ether] | 110 µM (≈ 35 µg/mL) |
| CCCCCCCCCCCCOCCOCCOCCOCCOCCO [L5, Pentaethylene Glycol Monododecyl Ether] | 110 µM (≈ 44.7 µg/mL) |
| CCCCCCCCCCCCOCCO [L1, Ethylene Glycol Monododecyl Ether] | 220 µM (≈ 50.7 µg/mL) |

Each compound was assayed on Stenotrophomonas maltophilia (assay: Additional antibacterial data, MIC (Table XII)). Details: Stenotrophomonas maltophilia 10257; inoculum 10000 cfu/spot; 24 hrs at 37° C.
Type: cell-based
Experimental: Using the protocols outlined in the example above, the inventors further investigated the antibacterial effects of representative alkoxylated alkanol compounds. The inoculum was 10000 cfu/spot; inclubation was for 24 hrs at 37° C.

| Compound | MIC (%) volume/volume |
| --- | --- |
| CCCCCCCCCCCCOCCO [L1, Ethylene Glycol Monododecyl Ether] | 0.5 % volume/volume |
